In patent US9034887B2, “Dihydroorotate dehydrogenase as antifungal drug target and quinazolinone-based inhibitors thereof” (F2G Limited, priority 2008, dated 2015):
Values after ≈ are worked out from the molar mass of the structure shown.

What was measured:
[1] = molecular target: T1, Recombinant DHODH from C. albicans (Candida albicans, UniProt Q874I4); assay: DHODH inhibition screen (DCIP reduction, 600 nm), C. albicans enzyme; format: biochemical
T1 construct: His-tag; NusA (Nus-tag) fusion of vector pET43.1 (own knowledge of the vector) (N); made in house; host or cells: E. coli BL21 DE3
T1 sequence (Q874I4 57-444): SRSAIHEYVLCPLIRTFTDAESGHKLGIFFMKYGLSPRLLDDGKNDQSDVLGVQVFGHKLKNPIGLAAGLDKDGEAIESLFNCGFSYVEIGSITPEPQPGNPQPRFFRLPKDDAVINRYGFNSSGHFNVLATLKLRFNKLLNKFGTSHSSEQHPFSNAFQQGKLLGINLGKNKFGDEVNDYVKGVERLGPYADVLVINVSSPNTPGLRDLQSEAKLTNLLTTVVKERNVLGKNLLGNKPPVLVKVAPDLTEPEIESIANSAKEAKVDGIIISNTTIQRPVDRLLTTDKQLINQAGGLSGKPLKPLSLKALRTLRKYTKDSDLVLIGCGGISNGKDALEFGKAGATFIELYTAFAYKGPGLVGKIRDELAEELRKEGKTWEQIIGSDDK
Method: (§1) 1. The following buffer and stock solution were prepared:
(§2) Coenzyme Q2 (Sigma) was dissolved in DMSO to give a concentration of 10 mg/ml. […] The stock solution was made with 127.36 μl DHO, 127.36 μl DCIP and 318.4 μl Coenzyme Q2, made up to 80 ml with Buffer A. Final concentrations in assay wells were; DHO, 500 μM; Coenzyme Q, 50 μM; DCIP, 100 μM.
(§3) 2. […] Duplicate sets of plates were used such that one set received enzyme while a control set received no enzyme.
(§4) 3. […] Then 20 μl of DHODH solution was added to all the +enzyme plates and 20 μl of Buffer A was added to all the control −enzyme plates.
(§5) 4. 20 μl of DHO/Coenzyme Q2/DCIP solution was added to all the wells, after which plates were incubated at room temperature for […] and then read on a Tecan Safire spectrophotometer at 600 nm.
(§6) Recombinant DHODH from human or C. albicans was assayed in the same way. It is necessary to adjust the enzyme concentration and reaction time to take into account variations in activity of enzyme batches, thus the incubation time was 20 minutes for the C. albicans enzyme and 34 minutes for the human enzyme.

Aspergillus niger [2] = assay: MIC in YAG medium, A. niger; format: cell-based; conditions: 24 hrs at 35° C., >70% growth inhibition, read-out: MIC grade, A. niger
Method: (§7) Between 1 and 5 mgs of compound were accurately weighed out into a sterile Eppendorf tube. The compound was dissolved in DMSO to give a solution containing 5 mg/mL. Tubes were stored at −20° C. until required.
(§8) On the day of testing thawed solutions were vortex mixed to ensure homogeneity. 30 μL of solution was removed and added to 570 μL of sterile water in a separate sterile Eppendorf. The thoroughly mixed solution was used to prepare a series of doubling dilutions in water, in a deep well plate. Thirteen replicate plates were prepared using a Minitrak by aspirating 20 μL from each well into eleven clear polystyrene 96 well plates.
(§9) Spores of Aspergillus spp. (Aspergillus fumigatus [two strains], Aspergillus terreus [two strains], Aspergillus niger and Aspergillus flavus) were harvested from cultures grown on Sabarauds agar for 5 days, and resuspended in PBS/Tween 80 to approx 1×10^7 cfu/mL. Each organism suspension was diluted in YAG medium (1% glucose, 1% ammonium chloride and 0.5% yeast extract) to 0.5-2×10^4 cfu/mL. 80 μL of an organism suspension was added to each well of the plate containing drug dilutions.
(§10) All plates were incubated for 24 hrs at 35° C. Growth was assessed by monitoring the optical density at 485 nm for each well. The MIC of a compound is the lowest drug concentration that inhibits growth of an organism by >70% compared with a drug free control. MICs are recorded as mg/L. In cases where the MIC of an organism is […] the MIC is repeated using a concentration range of 0.5-0.0005 mg/L.

Aspergillus flavus [3] = assay: MIC in RPMI medium, A. flavus; format: cell-based; conditions: 24-48 hrs at 35° C., >80% growth inhibition, read-out: MIC grade, A. flavus
Method: as §7, §8
(§11) Assays were also performed in RPMI medium. To perform MIC tests in this medium, dilutions of compounds are prepared in microtitre plates as described above. Fungal strains to be tested are grown and harvested in an identical manner to that described above, and each organism suspension was diluted in RPMI medium, containing 2% glucose and 0.135 M MOPS buffer (pH 7.0) to 0.5-2×10^4 cfu/mL, rather than in YAG medium. 80 μL of an organism suspension was added to each well of the plate containing drug dilutions.
(§12) All plates were incubated for 24-48 hrs at 35° C. Growth was assessed by monitoring the optical density at 485 nm for each well. […] The following organisms were tested: Aspergillus flavus, Aspergillus fumigatus AF293 and AF210, Aspergillus niger and Aspergillus terreus AT4 and AT49.

[4] = molecular target: T2, Recombinant DHODH from human (Homo sapiens, UniProt Q02127); assay: DHODH inhibition screen (DCIP reduction, 600 nm), human enzyme; format: biochemical; conditions: Table 3, read-out: IC50 values for Compound Examples 1 to 15 identified from screens, Human
T2 construct: His-tag; NusA (Nus-tag) fusion of vector pET43.1 (own knowledge of the vector) (N); made in house; host or cells: E. coli BL21 DE3
T2 sequence (Q02127 31-395 limits assumed): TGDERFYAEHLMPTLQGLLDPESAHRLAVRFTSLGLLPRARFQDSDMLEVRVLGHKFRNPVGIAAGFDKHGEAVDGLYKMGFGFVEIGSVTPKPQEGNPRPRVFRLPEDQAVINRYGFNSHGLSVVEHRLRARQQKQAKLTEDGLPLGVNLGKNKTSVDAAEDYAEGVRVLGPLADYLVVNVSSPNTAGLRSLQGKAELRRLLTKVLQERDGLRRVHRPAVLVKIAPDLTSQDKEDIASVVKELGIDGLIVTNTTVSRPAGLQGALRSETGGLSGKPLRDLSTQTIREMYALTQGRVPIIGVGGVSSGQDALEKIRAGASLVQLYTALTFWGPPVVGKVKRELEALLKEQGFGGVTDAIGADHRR
Method: as §1, §2, §3, §4, §5, §6

[5] = system: Aspergillus fumigatus AF293; assay: MIC in RPMI medium, A. fumigatus; format: cell-based; conditions: 24-48 hrs at 35° C., >80% growth inhibition, read-out: MIC grade, A. fumigatus
Method: as §7, §8, §11, §12

A. fumigatus 210 = assay: MIC in YAG medium, A. fumigatus 210; format: cell-based; conditions: Aspergillus fumigatus, 24 hrs at 35° C., >70% growth inhibition, read-out: MIC grade, A. fumigatus 210
Method: as §7, §8, §9, §10

Aspergillus flavus [6] = assay: MIC in YAG medium, A. flavus; format: cell-based; conditions: 24 hrs at 35° C., >70% growth inhibition, read-out: MIC grade, A. flavus
Method: as §7, §8, §9, §10

Aspergillus terreus = assay: MIC in YAG medium, A. terreus; format: cell-based; conditions: 24 hrs at 35° C., >70% growth inhibition, read-out: MIC grade, A. terreus
Method: as §7, §8, §9, §10

[7] = system: Aspergillus fumigatus AF210; assay: MIC in RPMI medium, A. fumigatus 210; format: cell-based; conditions: 24-48 hrs at 35° C., >80% growth inhibition, read-out: MIC grade, A. fumigatus 210
Method: as §7, §8, §11, §12

Aspergillus terreus AT4 = assay: MIC in RPMI medium, A. terreus; format: cell-based; conditions: 24-48 hrs at 35° C., >80% growth inhibition, read-out: MIC grade, A. terreus
Method: as §7, §8, §11, §12

Aspergillus terreus AT49 = assay: MIC in RPMI medium, A. terreus 49; format: cell-based; conditions: 24-48 hrs at 35° C., >80% growth inhibition, read-out: MIC grade, A. terreus 49
Method: as §7, §8, §11, §12

Aspergillus niger [8] = assay: MIC in RPMI medium, A. niger; format: cell-based; conditions: 24-48 hrs at 35° C., >80% growth inhibition, read-out: MIC grade, A. niger
Method: as §7, §8, §11, §12

Aspergillus fumigatus = assay: MIC in YAG medium, A. fumigatus; format: cell-based; conditions: 24 hrs at 35° C., >70% growth inhibition, read-out: MIC grade, A. fumigatus
Method: as §7, §8, §9, §10

A. terreus 49 = assay: MIC in YAG medium, A. terreus 49; format: cell-based; conditions: Aspergillus terreus, 24 hrs at 35° C., >70% growth inhibition, read-out: MIC grade, A. terreus 49
Method: as §7, §8, §9, §10

[9] = molecular target: Recombinant A. fumigatus DHODH (Aspergillus fumigatus, UniProt Q4X169); assay: DHODH inhibition screen (DCIP reduction, 600 nm), A. fumigatus enzyme; format: biochemical
Chain of Recombinant A. fumigatus DHODH (Q4X169 entry or part of it): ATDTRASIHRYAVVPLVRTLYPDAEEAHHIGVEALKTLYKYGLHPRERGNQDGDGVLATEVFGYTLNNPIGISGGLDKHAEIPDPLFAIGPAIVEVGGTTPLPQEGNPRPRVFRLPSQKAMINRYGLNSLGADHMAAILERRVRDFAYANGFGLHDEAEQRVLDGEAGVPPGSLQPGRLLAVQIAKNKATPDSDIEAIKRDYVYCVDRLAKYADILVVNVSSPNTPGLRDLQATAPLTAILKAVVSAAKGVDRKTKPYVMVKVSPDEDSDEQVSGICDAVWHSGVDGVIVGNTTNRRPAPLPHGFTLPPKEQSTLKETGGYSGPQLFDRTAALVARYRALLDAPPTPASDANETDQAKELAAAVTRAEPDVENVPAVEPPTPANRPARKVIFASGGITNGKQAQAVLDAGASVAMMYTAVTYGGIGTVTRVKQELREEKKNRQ
Method: as §1
Buffer A: 62.5 mM TrisHCl (pH8.0), 150 mM NaCl, 10% v/v glycerol
DHO/Coenzyme Q2/DCIP solution: 19.848 mg dihydroorotate (DHO; Sigma) was dissolved in 160 μl DMSO. Coenzyme Q2 (Sigma) was dissolved in DMSO to give a concentration of 10 mg/ml. 7.236 mg 2,6-dichloroindophenol (DCIP; Sigma) was dissolved in 160 μl DMSO. The stock solution was made with 127.36 μl DHO, 127.36 μl DCIP and 318.4 μl Coenzyme Q2, made up to 80 ml with Buffer A. Final concentrations in assay wells were; DHO, 500 μM; Coenzyme Q, 50 μM; DCIP, 100 μM.
2. Compounds were aliquotted into 384-well microtitre plates at a range of dilutions to give final concentrations in the assay of […]. Duplicate sets of plates were used such that one set received enzyme while a control set received no enzyme. Since compounds are frequently dissolved in DMSO or a DMSO/water mixture, assays were set up to give a final concentration of 1% (v/v) DMSO in wells.
3. Recombinant A. fumigatus DHODH was suspended in Buffer A to give a concentration of 1435.8 ng protein in 20 μl. Then 20 μl of DHODH solution was added to all the +enzyme plates and 20 μl of Buffer A was added to all the control −enzyme plates.
as §5
as §6, with “enzyme. Compounds are screened against a fungal and human enzyme to identify compounds which are selective for the fungal enzyme.” for “enzyme.”

SMILES	IC50 [1] [µM]	MIC (Aspergillus niger [2]) [µg/mL]	MIC (Aspergillus flavus [3]) [µg/mL]	IC50 [4] [µM]	MIC [5] [µg/mL]	MIC (A. fumigatus 210) [µg/mL]	MIC (Aspergillus flavus [6]) [µg/mL]	MIC (Aspergillus terreus) [µg/mL]	MIC [7] [µg/mL]	MIC (Aspergillus terreus AT4) [µg/mL]	MIC (Aspergillus terreus AT49) [µg/mL]	MIC (Aspergillus niger [8]) [µg/mL]	MIC (Aspergillus fumigatus) [µg/mL]	MIC (A. terreus 49) [µg/mL]	IC50 [9] [µM]
Cc1c(-c2ccc(-c3ccccc3F)cc2)nc2ccc(F)cc2c1C(=O)O [Brequinar, brequinar]	143														
CC(C)Sc1nc2ccccc2c(=O)n1-c1ccccc1C(C)C [Compound Example 8, 3-(2-Isopropyl-phenyl)-2-isopropylsulfanyl-3H-quinazolin-4-one]		< 1	> 10	131	< 1	< 1	> 10	< 1	1 to 10 (≈ 2.95 to 29.5 µM)	> 10	1 to 10 (≈ 2.95 to 29.5 µM)	< 1	< 1	< 1	12.2
CCc1ccccc1-n1c(SC(C)C)nc2ccccc2c1=O [Compound Example 9, 3-(2-Ethyl-phenyl)-2-isopropylsulfanyl-3H-quinazolin-4-one]		< 1	> 10	123	< 1	< 1	> 10	1 to 10 (≈ 3.08 to 30.8 µM)	> 10	> 10	> 10	< 1	< 1	< 1	17.7
CCSc1nc2cccc(OC)c2c(=O)n1-c1ccccc1OC [Compound Example 12, 2-Ethylsulfanyl-5-methoxy-3-(2-methoxy-phenyl)-3H-quinazolin-4-one]		< 1	> 10	117	1 to 10 (≈ 2.92 to 29.2 µM)	< 1	1 to 10 (≈ 2.92 to 29.2 µM)	1 to 10 (≈ 2.92 to 29.2 µM)	1 to 10 (≈ 2.92 to 29.2 µM)	1 to 10 (≈ 2.92 to 29.2 µM)	1 to 10 (≈ 2.92 to 29.2 µM)	< 1	< 1	< 1	26.9
CC(C)Sc1nc2ccccc2c(=O)n1-c1ccccc1N(C)C [Compound Example 11, 3-(2-Dimethylamino-phenyl)-2-isopropylsulfanyl-3H-quinazolin-4-one]		1 to 10 (≈ 2.95 to 29.5 µM)	> 10	118	1 to 10 (≈ 2.95 to 29.5 µM)	1 to 10 (≈ 2.95 to 29.5 µM)	> 10	1 to 10 (≈ 2.95 to 29.5 µM)	> 10	> 10	> 10	1 to 10 (≈ 2.95 to 29.5 µM)	1 to 10 (≈ 2.95 to 29.5 µM)	1 to 10 (≈ 2.95 to 29.5 µM)	21.2
COc1ccccc1-n1c(SC(C)C)nc2ccccc2c1=O [Compound Example 7, 2-Isopropylsulfanyl-3-(2-methoxy-phenyl)-3H-quinazolin-4-one]		< 1	> 10	50.1	1 to 10 (≈ 3.06 to 30.6 µM)	< 1	> 10	< 1	1 to 10 (≈ 3.06 to 30.6 µM)	1 to 10 (≈ 3.06 to 30.6 µM)	1 to 10 (≈ 3.06 to 30.6 µM)	< 1	< 1	1 to 10 (≈ 3.06 to 30.6 µM)	11.6
CCSc1nc2cc(C)ccc2c(=O)n1-c1ccccc1OC [Compound Example 5, 2-Ethylsulfanyl-3-(2-methoxy-phenyl)-7-methyl-3H-quinazolin-4-one]		< 1	> 10	15.5	1 to 10 (≈ 3.06 to 30.6 µM)	< 1	< 1	< 1	1 to 10 (≈ 3.06 to 30.6 µM)	1 to 10 (≈ 3.06 to 30.6 µM)	1 to 10 (≈ 3.06 to 30.6 µM)	> 10	< 1	< 1	5.4
